Experiments:
Type in all cases: cell-based, human
mda-4 = mda-4 expression (Northern blotting); conditions: H0-1
Protocol: (§1) The mass excision of the library was performed using ExAssist helper phage as described above. The SOLR strain of Escherichia coli and cDNA phagemids were mixed at 37° C. for 15 min and plated onto LB plates containing ampicillin and IPTG/X-gal. White colonies were chosen at random, isolated and grown in LB medium. Plasmid minireps and restriction enzyme digestions were performed to confirm the presence of inserts. The inserts were isolated and used as robes for Northern blotting analysis (5,25). […] Radiolabeled probes were generated by random oligonucleotide priming (25). Prehybridization, hybridization, posthybridization washes, and autoradiography were performed as described (5,18,25).

mda-5 = mda-5 expression (Northern blotting); conditions: H0-1
Protocol: as §1

mda-8 = mda-8 expression (Northern blotting); conditions: H0-1
Protocol: as §1

mda-9 = mda-9 expression (Northern blotting); conditions: H0-1
Protocol: as §1

mda-6 (WAF1/CIP1/SDI1) = conditions: HL-525, RA 1 μM; for time of treatment at which mda-6 expression is induced: TPA 3 nM, Vit D3 400 nM, 1 to 12 h test period
Protocol: HL-60 cells were originally provided by Dr. R. C. Gallo (National Cancer Institute, Bethesda, Md.) (Collins et al., 1978; Huberman & Callaham, 1979). HL-60 cells designated HL-525 were derived by cloning HL-60 cells after subculturing 102 times in the presence of increasing concentrations (up to 3 μM) of TPA at 5- to 8-day intervals (Homma et al., 1986; Mitchell et al., 1986). […] Prior to the experiments described in this study, the HL-525 cells were subcultured more than 20 times in the absence of TPA. Cells were grown in 100-mm tissue culture dishes in RPMI 1640 medium supplemented with 20% fetal bovine serum, penicillin (100 units/ml) and streptomycin (100 μg/ml) (Grand Island Biological Co., NY) at 37° C. in an atmosphere of 5% CO2 in air in a humidified incubator. The 1,25-(OH)2D3(Vit D3) and TPA were dissolved in a final concentration of 0.01% DMSO, and all-trans retinoic acid (RA) was dissolved in 0.1% DMSO in culture medium. […] Control cultures were treated with DMSO at a final concentration of 0.1% in culture medium. For experiments designed to test the effect of DMSO on HL-60 and HL-525 cells, DMSO was added to tissue culture medium at a final concentration of 1%. Stock solutions of CHX (10 mg/ml) were prepared in culture medium. CHX was added at a final concentration of 10 μg/ml. To examine a requirement for protein synthesis on mda-6 gene expression, HL-60 or HL-525 cells were seeded into 150 mm Petri dishes (5×10^5 cells/ml) in 30 ml of medium. CHX was added to a final concentration of 10 μg/ml 15 min prior to the addition of TPA to 3 nM. Cells were harvested at various times after addition of TPA for subsequent RNA isolation and analysis.
RNA was purified by centrifugation through a CsC1 cushion as described by Chirgwin et al. (1979). Ten μg of RNA was denatured with glyoxal/DMSO, electrophoresed on 1.0% agarose gels, transferred to nylon membranes, hybridized to a ^32P-labeled mda-6 probe (Jiang and Fisher, 1993) and then after stripping the membrane hybridized to a ^32P-labeled rat GAPDH probe (Fort et al., 1985), as described previously (Reddy et at., 1991; Su et al., 1991; Jiang et al., 1992). Following hybridization, the filters were washed and exposed for autoradiography (Reddy et al., 1991; Su et al., 1991; Jiang et al., 1992). mda-6 and GAPDH gene expression were also determined by reverse transcription-polymerase chain reaction (RT-PCR) as described (Adollahi et al. 1991; Lin et al., 1994). Total cytoplasmic RNA was treated with 0.5 units DNase (Boehringer-Mannheim Biochemicals)/μg RNA in 15% glycerol, 10 mM Tris, pH 7.5, 2.5 mM MgCl2, 0.1 mM EDTA, 80 mM KC1, 1 mM CaCl2 and 1 unit/ml RNasin (Promega) at 30° C. for 10 min. RNA was extracted with phenol-chloroform, precipitated with sodium acetate/ethanol and RNA pellets were resuspended in diethylpyrocarbonate-treated H2O. One μg of total RNA was reverse transcribed with 200 units of murine leukemia virus reverse transcriptase (Bethesda Research Laboratories) in 20 μl containing 1 mM deoxyribonucleotide triphosphates, 4 mM MgCl2, 10 mM Tris, pH 8.3, 50 mM KC1, 0.001% gelatin and 0.2 μg oligo-dT primer. Samples were diluted to 100 μl with buffer containing 0.2 mM deoxyribonucleotide triphosphates, 2 mM MgCl2, 10 mM Tris, pH 8.3, 50 mM KC1 and 0.001% gelatin. […]

[1] = 96 hours, doses of FIG. 15 legend
[2] = 24 hours, doses of FIG. 19, phenyl butyrate 24 hours, 4 days or 7 days

Compound | mda-4 expression (mda-4; [1]) | mda-5 expression (mda-5; [2]) | mda-5 expression (mda-5; [1]) | mda-8 expression (mda-8; [2]) | mda-8 expression (mda-8; [1]) | mda-9 expression (mda-9; [2]) | mda-9 expression (mda-9; [1]) | mda-4 expression (mda-4; [2]) | time of treatment at which mda-6 expression is detected (mda-6 (WAF1/CIP1/SDI1); extended treatment 12 h to 6 d) [days] | time of treatment at which mda-6 expression is induced (mda-6 (WAF1/CIP1/SDI1)) [h]
C=C(C)[C@@]12O[C@@]3(c4ccccc4)O[C@@H]1[C@@H]1[C@@H]4O[C@]4(CO)[C@@H](O)[C@]4(O)C(=O)C(C)=C[C@H]4[C@@]1(O3)[C@H](C)[C@H]2OC(=O)/C=C/C=C/c1ccccc1 [MEZ, mezerein] | No or only a small change in expression | No change in expression | No change in expression | No change in expression | No change in expression | Increased expression | No change in mda-9 expression | – | – | –
CC1=C(/C=C/C(C)=C/C=C/C(C)=C/C(=O)O)C(C)(C)CCC1 [RA, trans-retinoic acid] | – | – | No change in expression | – | No change in expression | – | No change in mda-9 expression | No or only a small change in expression | 2 | > 12
CCCCCCCCCCCCCC(=O)O[C@@H]1[C@@H](C)[C@@]2(O)[C@@H](C=C(CO)C[C@]3(O)C(=O)C(C)=C[C@@H]23)[C@@H]2C(C)(C)[C@]12OC(C)=O [TPA, 12-O-tetradecanoyl-phorbol-13-acetate] | – | – | – | – | – | – | – | – | – | 12
